Experimental data taken from PubChem BioAssay (NCI).
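Results reflect a 48-hour exposure of cells in 96-well plates to compound at five concentrations. GI50 is the concentration that inhibits growth by half. TGI is the concentration that stops growth completely.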 Where a SMILES comes first, the peptide text is derived from it. The star is where a group is joined. Cbz = O=C(OCc1ccccc1)*; NHNH2 = NN*

Experiments:
Experiment in all cases: NCI tumour cell line growth inhibition, 48 h
[1] = tested on: MDA-N
[2] = tested on: BT-549 breast
[3] = tested on: COLO 205 colon
[4] = tested on: LOX IMVI melanoma
[5] = tested on: PC-3 prostate
[6] = tested on: HCT-116 colon
[7] = tested on: EKVX NSCLC
[8] = tested on: CCRF-CEM leukemia
[9] = tested on: RXF 393 renal
[10] = tested on: HOP-92 NSCLC

Row | SMILES | TGI [1] [µM] | TGI [2] [µM] | TGI [3] [µM] | TGI [4] [µM] | TGI [5] [µM] | TGI [6] [µM] | TGI [7] [µM] | TGI [8] [µM] | TGI [9] [µM] | TGI [10] [µM] | GI50 [2] [µM] | GI50 [3] [µM] | GI50 [4] [µM] | GI50 [5] [µM] | GI50 [6] [µM] | GI50 [7] [µM] | GI50 [8] [µM] | GI50 [9] [µM] | GI50 [10] [µM]
1 | COCc1nc2c(OC)cc(-c3nc4ccc(N5CCN(C)CC5)cc4[nH]3)c(OC)c2[nH]1 | > 100 | > 100 | 77 | 34.8 | > 100 | > 100 | > 100 | > 100 | 51.9 | > 100 |  |  |  |  |  |  |  |  | 
2 | CCC(=O)Oc1c2ccsc2c(OC(=O)CC)c2ccsc12 | 0.136 | 0.361 | 10.6 |  |  | 1.79 | 2.51 | 9.52 | 2.69 | 3.98 |  |  |  |  |  |  |  |  | 
3 | COc1ccc2c(c1)CC1=C(O2)c2ccc(OC)cc2OC1 | 38.4 | 38.8 | 33.8 | 27.2 | 57 | 41.8 | 52.5 | > 100 |  |  |  |  |  |  |  |  |  |  | 
4 | COc1cc(/C=C\C(=O)O)ccc1OCc1ccccc1 | > 100 |  | > 100 | > 100 | > 100 | > 100 | > 100 | > 100 | > 100 | > 100 |  |  |  |  |  |  |  |  | 
5 | Brc1cc2nn(-c3ccccc3)nc2c2nonc12 | > 100 | > 100 | > 100 | > 100 | > 100 | > 100 | > 100 | > 100 |  | > 100 |  |  |  |  |  |  |  |  | 
6 | COc1ccc(Nc2nc3c([nH]2)c(=O)n(C)c(=O)n3C)cc1 | > 10 |  | > 10 | > 10 | > 10 |  | > 10 | > 10 | > 10 | > 10 |  |  |  |  |  |  |  |  | 
7 | CCOn1c(C2(CC3CCN(C(=O)c4ccccc4)CC3)OCCO2)cc2ccccc21 | 30.1 | 34.5 | 36.3 | 30.4 | 26 | 29.2 | 40.1 | 31.7 | 31.2 | 23.5 |  |  |  |  |  |  |  |  | 
8 | NC(N)=NS(=O)(=O)c1ccc(NC(=O)c2ccc3nc4ccccc4c(Nc4ccc(S(=O)(=O)N=C(N)N)cc4)c3c2)cc1 | > 100 | > 100 | > 100 | > 100 | > 100 | > 100 | > 100 | > 100 | > 100 | > 100 |  |  |  |  |  |  |  |  | 
9 | Nc1c(C(=O)c2ccc(Cl)cc2)[nH]c(NCc2ccccc2)c1C(=S)Nc1ccccc1 | 3.32 | 7.06 | 26.2 | 3.19 | 18.4 | 3.31 | 20.1 | 5.54 | 4.16 | 9.02 |  |  |  |  |  |  |  |  | 
10 | COc1cc(CN2CCCCC2)cc2cc(C(=O)O)c(=O)oc12 | > 100 | > 100 | > 100 | > 100 | > 100 | > 100 | > 100 | > 100 | > 100 | > 100 |  |  |  |  |  |  |  |  | 
11 | CN(C)CCn1c(=O)c2ccc(NCCCN(C)CCCNc3ccc4c(=O)n(CCN(C)C)c(=O)n5c6ccc([N+](=O)[O-])cc6c(=O)c3c45)c3c(=O)c4cc([N+](=O)[O-])ccc4n(c1=O)c23 | 0.22 | 0.176 | 0.204 |  | 0.293 | 0.118 | 1.32 |  |  | 0.198 |  |  |  |  |  |  |  |  | 
12 | CC1(C(=O)O)CCCC1C(=O)O (stereo not drawn) | > 100 | > 100 |  | > 100 | > 100 | > 100 | > 100 | > 100 | > 100 | > 100 |  |  |  |  |  |  |  |  | 
13 | CCNC(=O)C1CCCN1C(=O)C(CCCN=C(N)N)NC(=O)C(CC(C)C)NC(=O)C(Cc1c[nH]c2ccccc12)NC(=O)C(Cc1ccc(O)cc1)NC(=O)C(CO)NC(=O)C(Cc1c[nH]c2ccccc12)NC(=O)C(Cc1cnc[nH]1)NC(=O)C1CCC(=O)N1 (stereo not drawn) | > 100 | > 100 | > 100 |  | > 100 |  | > 100 | > 100 | > 100 | > 100 |  |  |  |  |  |  |  |  | 
14 | O=C1C=CC(=O)c2c(O)c(NCCc3ccc(O)cc3)c(Cl)c(O)c21 | > 10 | > 10 | > 10 | > 10 | > 10 | > 10 | > 10 | > 10 |  | > 10 |  |  |  |  |  |  |  |  | 
15 | Cc1nc(C)c(Cc2ccccc2)o1 | > 100 | > 100 | > 100 | > 100 | > 100 | > 100 | > 100 | > 100 | > 100 |  |  |  |  |  |  |  |  |  | 
16 | CCC(C)C(=O)OC1CC2(C)C(c3ccoc3)OC(=O)CC23OC2(C)OC34C(OC(=O)C(C)C)C3(O)C(OC(=O)C5(C)OC5C)C5(C)CC3(O)C(C)(C5CC(=O)OC)C14O2 (stereo not drawn) | > 100 | > 100 | 57.5 | > 100 | > 100 | > 100 | > 100 | 74.1 |  | > 100 |  |  |  |  |  |  |  |  | 
17 | COc1ccc2cc(NC(=O)N/N=C\c3ccc(Cl)cc3)ccc2c1 | > 100 | > 100 | > 100 | > 100 | > 100 | > 100 | > 100 | > 100 |  | > 100 |  |  |  |  |  |  |  |  | 
18 | N#Cc1c(-c2ccc(F)cc2)nc(N/N=C/c2c[nH]c3ccccc23)nc1N1CCOCC1 |  | 30.9 | 18.2 | 11.2 | > 100 | 17.9 | 86.9 | > 100 | 3.97 | 52.4 | 5.43 | 2.37 | 3.33 | 3.54 | 2.17 | 5.44 | 3.43 | 1.19 | 2.44
19 | COC(=O)C1=Nc2c(C)nn(-c3ccccc3)c2N=C(c2ccc([N+](=O)[O-])cc2)C1 | > 10 | > 10 | > 10 | > 10 | > 10 | > 10 |  | > 10 |  | > 10 |  |  |  |  |  |  |  |  | 
20 | COCC1OC(N2C(=O)NC(=O)[C@@H]3C=C4CCCCC4=C[C@@H]32)C(OC)C1OC (stereo partly drawn) | > 100 | > 100 |  | > 100 | > 100 | > 100 | > 100 |  |  | > 100 |  |  |  |  |  |  |  |  | 
21 | COC(=O)CC(NC(=O)OCc1ccccc1)C(=O)NC(CC(=O)OC)C(=O)NC(CC(=O)OC)C(=O)NC(CC(=O)OC)C(=O)NC(CC(=O)OC)C(=O)NC(CC(=O)OC)C(=O)NN (stereo not drawn) (Cbz-D(OMe)D(OMe)D(OMe)D(OMe)D(OMe)D(OMe)-NHNH2; configuration not given here) | > 100 | > 100 | > 100 | > 100 | > 100 | > 100 |  | > 100 |  | > 100 |  |  |  |  |  |  |  |  | 
